The results in this text go back to patent US11945784B2, “IRE1 small molecule inhibitors” (Cornell University, priority 2018, dated 2024).

For test [1], the target named is T1, IRE1α (Homo sapiens (Human), UniProt O75460). The experiment in a line: In vitro FRET assay. It counts as biochemical. To be noted: XBP1 RNA probe. In short, it runs like this:
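IRE1α (diluted to 2 nM) in citrate buffer pH 7.15 with serially diluted compound; FAM/Iowa Black-quenched XBP1 RNA probe (wildtype or non-spliceable mutant) added, fluorescence read […]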

Test [2] addresses T1, IRE1α. As to the kind of experiment: In vitro luciferase assay (IRE1α Endoribonuclease Nanoluciferase Assay). In kind it is cell-based. To be noted: 293T cells, XBP1 luciferase reporter. In short, it runs like this: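 293T cells transiently transfected with a PGK-Luc2-P2A-XBP1u-nanoluciferase-PEST reporter for IRE1α-dependent XBP1 splicing, replated, and treated next day with ER stressors ± inhibitors. Lysates read sequentially for luminescence (OneGlo, then Stop and Glo), 1000 ms integration.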
(In general: In a reporter assay the amount or activity of a reporter protein is the signal.)

Test [3] has as its target IRE1 (Homo sapiens (Human), UniProt O75460). The experiment in a line: qPCR assay of XBP1 splicing. It counts as cell-based. To be noted: 293T cells, tunicamycin-induced ER stress. On the procedure: A quantitative PCR (qPCR) assay was performed to evaluate the ability of compound 17 and compound 23 to inhibit IRE1. To perform the qPCR assay, 50,000 293T cells were plated in each well of a flat-bottomed 96 well plates in duplicate. Test compounds or DMSO control were diluted to 4× their final concentration and 50 microliters were added to the cells. Compounds were incubated for 1 hour, then 50 microliters of 4× concentrated tunicamycin (8 ug/mL) were added to the cells to induce ER stress. ER stress was allowed to accumulate for 6 hours, after which the supernatant was removed and the cells were lysed with 150 uL of RLT lysis buffer (Qiagen). Samples were frozen at −80 degrees Celsius until RNA was isolated with the RNeasy 96 kit (Qiagen) according to the manufacturer's recommended protocol. The samples were used for subsequent RT-qPCR analysis of beta-actin, XBP1s, total XBP1 and SEC24D. Gene expression was evaluated by quantitative PCR for XBP1s, total XBP1 and SEC24D transcripts using the 2^(−ΔCT) method for calculating normalized gene expression. Gene expression levels were normalized to ACTB transcripts. XBP1 splicing is calculated as XBP1s expression divided by total XBP1 expression. […] See FIG. 3A (Compound 17) and FIG. 3B (Compound 23).
In general terms: Quantitative PCR measures a nucleic acid by following its amplification.

The test system of test [4] is 293T cells. The experiment in a line: Growth assay (cytotoxicity). In kind it is cell-based. To be noted: Homo sapiens, HEK-293T, 48 h, 2 day incubation, read-out: percentage growth at 5 uM. The procedure:
A growth assay is performed to evaluate the compounds disclosed in Table 1 for cytotoxicity. Briefly, 5,000,000 293T cells are resuspended in 18 mL of cDMEM for a final concentration of 277,777 cells/mL. 180 μL (50,000 cells) cDMEM was seeded per well in 96 well flat bottom plate, with some wells left unfilled. In a 96 well plate, […] cDMEM and 1 uL of any one of the compounds disclosed herein. 133.3 uL cDMEM is added to wells 1, 2, 3, 5, 6, 7, 9, 10, and 11 of row A. Wells are serially diluted with 66.7 uL (highest concentration on right, lowest on left) to the total concentrations shown below. 20 uL of each dilution is transferred in duplicate to the cells plated in the 96-well plate. The plate is then placed in a humidified chamber for a 2 day incubation, and then photographed (media is more yellow in wells with potent cell growth). Absorbance is then measured at […] (lower for more acidic media) and […] (higher for more acidic media).

The structures appear in SMILES notation. Some results are limits rather than exact numbers.

T1 sequence (O75460 19-977): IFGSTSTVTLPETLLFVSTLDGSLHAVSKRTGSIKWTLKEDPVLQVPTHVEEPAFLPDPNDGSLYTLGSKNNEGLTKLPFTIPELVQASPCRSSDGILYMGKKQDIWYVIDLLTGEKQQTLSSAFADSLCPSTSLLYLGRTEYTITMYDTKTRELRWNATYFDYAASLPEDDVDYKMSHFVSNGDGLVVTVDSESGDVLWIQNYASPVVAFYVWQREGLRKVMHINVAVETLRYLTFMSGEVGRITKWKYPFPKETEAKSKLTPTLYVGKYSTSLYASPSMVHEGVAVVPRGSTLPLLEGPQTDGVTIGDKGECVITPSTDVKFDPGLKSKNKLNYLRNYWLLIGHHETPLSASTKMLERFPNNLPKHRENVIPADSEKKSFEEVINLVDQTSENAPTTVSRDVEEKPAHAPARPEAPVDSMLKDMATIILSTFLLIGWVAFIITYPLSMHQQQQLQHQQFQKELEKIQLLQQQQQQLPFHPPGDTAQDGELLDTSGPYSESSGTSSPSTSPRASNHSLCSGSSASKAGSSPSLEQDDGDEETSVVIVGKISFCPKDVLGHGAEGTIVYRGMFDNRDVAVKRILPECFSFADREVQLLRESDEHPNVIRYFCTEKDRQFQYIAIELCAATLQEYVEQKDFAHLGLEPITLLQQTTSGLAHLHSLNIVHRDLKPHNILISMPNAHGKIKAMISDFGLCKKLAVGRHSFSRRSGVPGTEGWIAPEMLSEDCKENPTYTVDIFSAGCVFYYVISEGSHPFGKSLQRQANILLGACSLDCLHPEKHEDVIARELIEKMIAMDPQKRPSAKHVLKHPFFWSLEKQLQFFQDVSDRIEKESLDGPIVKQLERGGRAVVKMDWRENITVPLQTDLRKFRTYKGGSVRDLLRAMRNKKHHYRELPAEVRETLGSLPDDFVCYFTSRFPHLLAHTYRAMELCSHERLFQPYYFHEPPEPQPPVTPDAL
Chain of IRE1 (O75460 19-977): as above

By IC50 is commonly meant the concentration that inhibits the measured activity by half. For orientation: EC50 means the concentration at which the effect is half-maximal. On to `Cc1nc(NS(=O)(=O)c2ccccc2Cl)ccc1/C=C/c1cnc(NC2CCC(N(C)C)CC2)nc1` (centres unmarked) [Compound 23, 2-chloro-N-(5-((E)-2-(2-(((1r,4r)-4-(dimethylamino)cyclohexyl)amino)pyrimidin-5-yl)vinyl)-6-methylpyridin-2-yl)benzenesulfonamide], for which the IC50 in test [1] was at most 1 nM; in test [3], 4.39 nM. Further, in test [2], the EC50 is at most 5 nM. For the same compound, the viability at 5 µM in test [4] was over 75%.
As to `COc1nc(NS(=O)(=O)c2ccccc2Cl)ccc1/C=C/c1cnc(NC2CCC(N(C)C)CC2)nc1` (centres unmarked) [Compound 17, 2-chloro-N-(5-((E)-2-(2-(((1r,4r)-4-(dimethylamino)cyclohexyl)amino)pyrimidin-5-yl)vinyl)-6-methoxypyridin-2-yl)benzenesulfonamide], the IC50 in test [1] was at most 1 nM; in test [3], 4.95 nM. In test [2], the EC50 is at most 5 nM. The viability at 5 µM in test [4] was over 75%.
`CCc1nc(NS(=O)(=O)c2ccccc2Cl)ccc1C=Cc1cnc(NC2CCC(N)CC2)nc1` (centres unmarked) [Compound 45, N-(5-(2-(2-((1r,4r)-4-aminocyclohexyl)amino)pyrimidin-5-yl)vinyl)-6-ethylpyridin-2-yl)-2-chlorobenzenesulfonamide] displayed an IC50 in test [1] of at most 1 nM. Besides, in test [2], the EC50 was in the range of 5 to 50 nM. Besides, the viability at 5 µM in test [4] was over 75%.
With `NC1CCC(Nc2ncc(CCc3ccc(NS(=O)(=O)c4ccccc4Cl)cc3)cn2)CC1` (centres unmarked) [Compound 1, N-(4-(2-(2-(((1r,4r)-4-aminocyclohexyl)amino)pyrimidin-5-yl)ethyl)phenyl)-2-chlorobenzenesulfonamide], the IC50 in test [1] lay within 1 to 5 nM. This compound also showed an EC50 in test [2] of 50 to 100 nM. For the same compound, in test [4], the viability at 5 µM was over 75%.
Compound `CCc1nc(NS(=O)(=O)c2ccccc2Cl)ccc1/C=C/c1cnc(NC2CCC(NC)CC2)nc1` (centres unmarked) [Compound 47, 2-chloro-N-(6-ethyl-5-((E)-2-(2-(((1r,4r)-4-(methylamino)cyclohexyl)amino)pyrimidin-5-yl)vinyl)pyridin-2-yl)benzenesulfonamide] gave an IC50 in test [1] of at most 1 nM. The compound also returned an EC50 in test [2] of 5 to 50 nM. In addition, the viability at 5 µM in test [4] is over 75%.
With `COc1nc(NS(=O)(=O)c2ccccc2Cl)ccc1CCc1cnc(NC2CCC(N(C)C)CC2)nc1` (centres unmarked) [Compound 19, 2-chloro-N-(5-(2-(2-(((1r,4r)-4-(dimethylamino)cyclohexyl)amino)pyrimidin-5-yl)ethyl)-6-methoxypyridin-2-yl)benzenesulfonamide], the IC50 in test [1] was at most 1 nM. In test [2], this compound yielded an EC50 of 5 to 50 nM. Besides, in test [4], the viability at 5 µM was over 75%.
The corresponding values for `Cc1nc(NS(=O)(=O)c2ccccc2Cl)c(F)cc1/C=C/c1cnc(NC2CCC(N(C)C)CC2)nc1` (centres unmarked) [Compound 25, 2-chloro-N-(5-((E)-2-(2-(((1r,4r)-4-(dimethylamino)cyclohexyl)amino)pyrimidin-5-yl)vinyl)-3-fluoro-6-methylpyridin-2-yl)benzenesulfonamide] are at most 1 nM, 5 to 50 nM and over 75%.
`Cc1cc(NS(=O)(=O)c2ccccc2Cl)ccc1/C=C/c1cnc(NC2CCC(N(C)C)CC2)nc1` (centres unmarked) [Compound 26, 2-chloro-N-(4-((E)-2-(2-(((1r,4r)-4-(dimethylamino)cyclohexyl)amino)pyrimidin-5-yl)vinyl)-3-methylphenyl)benzenesulfonamide] displayed an IC50 in test [1] of at most 1 nM. In test [2], this compound returned an EC50 of at most 5 nM. For the same compound, the viability at 5 µM in test [4] is over 35%.
